The text below walks through data of patent publication US8937078B2, “Quinazolinones as prolyl hydroxylase inhibitors” (Janssen Pharmaceutica NV, priority 2009, dated 2015).

In test [1] the test system is Hep-3B cells. Briefly: Cellular assay: erythropoietin secretion in Hep-3B cells. The following applies: Homo sapiens, Hep3B, 100 μM compound, 24 hours, percent of EPO secretion relative to assay control compound 7-[(4-Chloro-phenyl)-(5-methyl-isoxazol-3-ylamino)-methyl]-quinolin-8-ol, read-out: Cellular % EPO Stimulation. The class given is cell-based, human. In short, it runs like this: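 Hep-3B cells in DMEM with 10% FBS, treated 24 h after plating with compounds at 100 μM final for a further 24 h. Secreted EPO in supernatant measured by MSD electrochemiluminescence sandwich immunoassay with anti-EPO detection antibody.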

For test [2], the target named is T1, human PHD2 (PHD2181-417) (Homo sapiens, UniProt Q9GZT9).
T1 construct: Smt (SUMO) tag (cleaved yes); made in house; host or cells: E. coli BL21 (pBAD vector)
In words: PHD enzymatic assay ([14C]-succinic acid production). In kind it is biochemical. The following applies: PHD2181-417, HIF-1α peptide 10 μM, average of results; read-out: Enzyme pIC50 (converted). In a few lines:
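Activity measured as [14C]-succinic acid formed from [5-14C]-2-oxoglutarate over 10 minutes, with peptide substrate at 10 μM, in Tris-HCl pH 7.5 buffer containing catalase, DTT and ascorbate. Unreacted oxoglutarate removed by DNP derivatisation; supernatant beta-counted.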

T1 sequence (Q9GZT9 181-417): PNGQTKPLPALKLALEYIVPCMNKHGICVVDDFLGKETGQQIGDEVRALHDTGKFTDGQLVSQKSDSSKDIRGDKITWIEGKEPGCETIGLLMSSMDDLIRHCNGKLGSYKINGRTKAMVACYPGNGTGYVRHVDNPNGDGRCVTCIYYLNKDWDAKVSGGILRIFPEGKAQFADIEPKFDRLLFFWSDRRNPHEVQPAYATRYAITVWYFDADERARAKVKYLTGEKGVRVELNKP

On to `CS(=O)(=O)c1ccc2nc(-n3cc(C(=O)O)cn3)[nH]c(=O)c2c1` [Example 157, 1-(6-Methanesulfonyl-4-oxo-3,4-dihydro-quinazolin-2-yl)-1H-pyrazole-4-carboxylic acid], for which, in test [1], the Emax at 100 µM is 17%. Besides, the IC50 in test [2] was 31.6 nM.

On to `COc1ccc(-c2ccc3nc(-n4cc(C(=O)O)cn4)[nH]c(=O)c3c2)cc1` [Example 200, 1-[6-(4-Methoxy-phenyl)-4-oxo-3,4-dihydro-quinazolin-2-yl]-1H-pyrazole-4-carboxylic acid], for which the Emax at 100 µM in test [1] stood at 118%. For the same compound, the IC50 in test [2] was 15.8 nM.

For the compound `O=C(O)c1cnn(-c2nc3ccc(NCc4cccc(Cl)c4)cc3c(=O)[nH]2)c1` [Example 182, 1-[6-(3-Chloro-benzylamino)-4-oxo-3,4-dihydro-quinazolin-2-yl]-1H-pyrazole-4-carboxylic acid], in test [1], the Emax at 100 µM amounted to 26%. Moreover, in test [2], the IC50 was 25.1 nM.

As to `O=C(O)c1cnn(-c2nc3cc(Sc4ccc(Cl)cc4)ccc3c(=O)[nH]2)c1` [Example 79, 1-[7-(4-Chloro-phenylsulfanyl)-4-oxo-3,4-dihydro-quinazolin-2-yl]-1H-pyrazole-4-carboxylic acid], the Emax at 100 µM in test [1] is 6%. Moreover, the IC50 in test [2] is 39.8 nM.

`O=C(O)c1cnn(-c2nc3cc(-c4cccc(Cl)c4)ccc3c(=O)[nH]2)c1` [Example 186, 1-[7-(3-Chloro-phenyl)-4-oxo-3,4-dihydro-quinazolin-2-yl]-1H-pyrazole-4-carboxylic acid]: the Emax at 100 µM in test [1] is 26%. The IC50 in test [2] is 50.1 nM.

As to `O=C(O)c1cnn(-c2nc3cc(F)c(Oc4cccc5ccccc45)cc3c(=O)[nH]2)c1` [Example 57, 1-[7-Fluoro-6-(naphthalen-1-yloxy)-4-oxo-3,4-dihydro-quinazolin-2-yl]-1H-pyrazole-4-carboxylic acid], in test [1], the Emax at 100 µM was determined as 135%. Moreover, the IC50 in test [2] is 20 nM.

As to `O=C(O)c1cnn(-c2nc3ccc(-c4cccc(Cl)c4)cc3c(=O)[nH]2)c1` [Example 193, 1-[6-(3-Chloro-phenyl)-4-oxo-3,4-dihydro-quinazolin-2-yl]-1H-pyrazole-4-carboxylic acid], the Emax at 100 µM in test [1] amounted to 141%. The IC50 in test [2] was 31.6 nM.

Consider `O=C(O)c1cnn(-c2nc3cc(O)ccc3c(=O)[nH]2)c1` [Example 154, 1-(7-Hydroxy-4-oxo-3,4-dihydro-quinazolin-2-yl)-1H-pyrazole-4-carboxylic acid], for which, in test [1], the Emax at 100 µM is 12%. The IC50 in test [2] is 50.1 nM.

As to `Cc1cccc(Oc2ccc3nc(-n4cc(C(=O)O)cn4)[nH]c(=O)c3c2)c1` [Example 36, 1-(4-Oxo-6-m-tolyloxy-3,4-dihydro-quinazolin-2-yl)-1H-pyrazole-4-carboxylic acid], in test [1], the Emax at 100 µM stood at 22%. The IC50 in test [2] was 39.8 nM.

With `O=C(O)c1cnn(-c2nc3c(Oc4ccccc4)cccc3c(=O)[nH]2)c1` [Example 112, 1-(4-Oxo-8-phenoxy-3,4-dihydro-quinazolin-2-yl)-1H-pyrazole-4-carboxylic acid], the Emax at 100 µM in test [1] is 18%. In test [2], the IC50 is 158 nM.

Regarding `CN1CCN(c2ccc3nc(-n4cc(C(=O)O)cn4)[nH]c(=O)c3c2)CC1` [Example 103, 1-[6-(4-methyl-piperazin-1-yl)-4-oxo-3,4-dihydro-quinazolin-2-yl]-1H-pyrazole-4-carboxylic acid], the Emax at 100 µM in test [1] came out at 30%. In test [2], the IC50 was 63.1 nM.

Take `O=C(O)c1cnn(-c2nc3cc(Cl)c(Oc4cccc5ccccc45)cc3c(=O)[nH]2)c1` [Example 53, 1-[7-Chloro-6-(naphthalen-1-yloxy)-4-oxo-3,4-dihydro-quinazolin-2-yl]-1H-pyrazole-4-carboxylic acid]: in test [1], the Emax at 100 µM was 45%. In addition, the IC50 in test [2] was 31.6 nM.

In the case of `O=C(O)c1cnn(-c2nc3cc(Cl)c(Oc4ccc5ccccc5c4)cc3c(=O)[nH]2)c1` [Example 54, 1-[7-Chloro-6-(naphthalen-2-yloxy)-4-oxo-3,4-dihydro-quinazolin-2-yl]-1H-pyrazole-4-carboxylic acid], the Emax at 100 µM in test [1] came out at 90%. The IC50 in test [2] is 39.8 nM.

Turning to `O=C(O)c1cnn(-c2nc3ccc(S(=O)(=O)N4CCCC4)cc3c(=O)[nH]2)c1` [Example 161, 1-[4-Oxo-6-(pyrrolidine-1-sulfonyl)-3,4-dihydro-quinazolin-2-yl]-1H-pyrazole-4-carboxylic acid], in test [1], the Emax at 100 µM was 17%. Moreover, the IC50 in test [2] was 39.8 nM.

As to `O=C(O)c1cnn(-c2nc3cc(C(F)(F)F)ccc3c(=O)[nH]2)c1` [Example 2, 1-(7-Trifluoromethyl-4-oxo-3,4-dihydro-quinazolin-2-yl)-1H-pyrazole-4-carboxylic acid], the Emax at 100 µM in test [1] was 21%. In test [2], the IC50 was 158 nM.

Take `O=C(O)c1cnn(-c2nc3ccc(Oc4cccc(F)c4)cc3c(=O)[nH]2)c1` [Example 34, 1-[6-(3-Fluoro-phenoxy)-4-oxo-3,4-dihydro-quinazolin-2-yl]-1H-pyrazole-4-carboxylic acid]: the Emax at 100 µM in test [1] stood at 73%. In addition, the IC50 in test [2] is 25.1 nM.

Regarding `CSc1ccc2nc(-n3cc(C(=O)O)cn3)[nH]c(=O)c2c1` [Example 155, 1-(6-Methylsulfanyl-4-oxo-3,4-dihydro-quinazolin-2-yl)-1H-pyrazole-4-carboxylic acid], in test [1], the Emax at 100 µM came out at 40%. Also, the IC50 in test [2] was 31.6 nM.

For `CCOc1ccc2nc(-n3cc(C(=O)O)cn3)[nH]c(=O)c2c1` [Example 121, 1-(6-Ethoxy-4-oxo-3,4-dihydro-quinazolin-2-yl)-1H-pyrazole-4-carboxylic acid], in test [1], the Emax at 100 µM turned out to be 30%. Moreover, the IC50 in test [2] is 10 nM.

Turning to `Cc1cc2nc(-n3cc(C(=O)O)cn3)[nH]c(=O)c2cc1Oc1cccc(-c2ccccc2)c1` [Example 91, 1-[6-(biphenyl-3-yloxy)-7-methyl-4-oxo-3,4-dihydro-quinazolin-2-yl]-1H-pyrazole-4-carboxylic acid], the Emax at 100 µM in test [1] was 75%. Moreover, in test [2], the IC50 is 25.1 nM.

Take `Cc1cccc(C)c1CNc1ccc2nc(-n3cc(C(=O)O)cn3)[nH]c(=O)c2c1` [Example 175, 1-[6-(2,6-Dimethyl-benzylamino)-4-oxo-3,4-dihydro-quinazolin-2-yl]-1H-pyrazole-4-carboxylic acid]: in test [1], the Emax at 100 µM is 97%. Also, in test [2], the IC50 was 31.6 nM.

For `O=C(O)c1cnn(-c2nc3c4c(ccc3c(=O)[nH]2)CCC4)c1` [Example 141, 1-(6-Oxo-2,3,6,7-tetrahydro-1H-7,9-diaza-cyclopenta[a]naphthalen-8-yl)-1H-pyrazole-4-carboxylic acid], the Emax at 100 µM in test [1] was found to be 25%. Also, in test [2], the IC50 was 501 nM.

On to `Cc1ccccc1Oc1ccc2nc(-n3cc(C(=O)O)cn3)[nH]c(=O)c2c1` [Example 37, 1-(4-Oxo-6-o-tolyloxy-3,4-dihydro-quinazolin-2-yl)-1H-pyrazole-4-carboxylic acid], for which the Emax at 100 µM in test [1] came out at 78%. The IC50 in test [2] was 25.1 nM.

Consider `O=C(O)c1cnn(-c2nc(=O)c3cc(Sc4ccccc4)c(Cl)cc3[nH]2)c1` [Example 25, 1-(7-Chloro-4-oxo-6-phenylsulfanyl-1,4-dihydro-quinazolin-2-yl)-1H-pyrazole-4-carboxylic acid], for which the Emax at 100 µM in test [1] stood at 68%. In addition, in test [2], the IC50 is 39.8 nM.

`O=C(O)c1cnn(-c2nc3c(-c4ccccc4)cccc3c(=O)[nH]2)c1` [Example 111, 1-(4-Oxo-8-phenyl-3,4-dihydro-quinazolin-2-yl)-1H-pyrazole-4-carboxylic acid]: in test [1], the Emax at 100 µM came out at 24%. In test [2], the IC50 was 126 nM.

In the case of `Cc1cc(C)c2c(=O)[nH]c(-n3cc(C(=O)O)cn3)nc2c1` [Example 145, 1-(5,7-Dimethyl-4-oxo-3,4-dihydro-quinazolin-2-yl)-1H-pyrazole-4-carboxylic acid], the Emax at 100 µM in test [1] came to 16%. Moreover, in test [2], the IC50 is 398 nM.

With `Cc1cccc(C)c1Oc1ccc2nc(-n3cc(C(=O)O)cn3)[nH]c(=O)c2c1` [Example 42, 1-[6-(2,6-Dimethyl-phenoxy)-4-oxo-3,4-dihydro-quinazolin-2-yl]-1H-pyrazole-4-carboxylic acid], in test [1], the Emax at 100 µM stood at 117%. Besides, the IC50 in test [2] is 25.1 nM.

As to `COc1cc2nc(-n3cc(C(=O)O)cn3)[nH]c(=O)c2cc1OC` [Example 17, 1-(6,7-Dimethoxy-4-oxo-3,4-dihydro-quinazolin-2-yl)-1H-pyrazole-4-carboxylic acid], the Emax at 100 µM in test [1] came out at 33%. The IC50 in test [2] is 200 nM.

In the case of `O=C(O)c1cnn(-c2nc3ccc(Oc4ccc(F)cc4)cc3c(=O)[nH]2)c1` [Example 32, 1-[6-(4-Fluoro-phenoxy)-4-oxo-3,4-dihydro-quinazolin-2-yl]-1H-pyrazole-4-carboxylic acid], in test [1], the Emax at 100 µM amounted to 68%. Moreover, the IC50 in test [2] was 25.1 nM.

For `COc1ccc2c(=O)[nH]c(-n3cc(C(=O)O)cn3)nc2c1` [Example 135, 1-(7-Methoxy-4-oxo-3,4-dihydro-quinazolin-2-yl)-1H-pyrazole-4-carboxylic acid], the Emax at 100 µM in test [1] amounted to 17%. In addition, the IC50 in test [2] is 79.4 nM.

As for `O=C(O)c1cnn(-c2nc3cc(Cl)c(N4CCc5ccc(Br)cc5C4)cc3c(=O)[nH]2)c1` [Example 85, 1-[6-(7-Bromo-3,4-dihydro-1H-isoquinolin-2-yl)-7-chloro-4-oxo-3,4-dihydro-quinazolin-2-yl]-1H-pyrazole-4-carboxylic acid], the Emax at 100 µM in test [1] came to 49%. In test [2], the IC50 is 25.1 nM.
